Data reported in US10914725B2, “Culture medium additive, culture medium composition, and method for culturing cells or tissue using same” (NISSAN CHEMICAL INDUSTRIES, LTD., priority 2015, dated 2021).

Key:
[1] = system: adenocarcinomic human alveolar basal epithelial cell line A549; assay: CellTiter-Glo cell survival assay of anticancer agents (Experimental Example 8); assay type: cell-based; settings: for IC50: Homo sapiens, A549, cell survival assay by luminescence, read-out: 50% inhibitory concentration
Description: Adenocarcinomic human alveolar basal epithelial cell line A549 (manufactured by DS PHARMA BIOMEDICAL CO., LTD.) was suspended in the above-mentioned medium composition containing low-molecular agar at 11,000 cells/mL. The above-mentioned cell suspension was dispensed to the wells of a 96 well flat bottom ultra-low attachment surface microplate (manufactured by Corning Incorporated, #3474) at 90 μL per 1 well. The plate was stood in a CO2 incubator (37° C., 5% CO2) overnight. […] Successively, the plate was further cultured in a standing state in a CO2 incubator (37° C., 5% CO2) for 7 days. As a negative control, a medium composition containing 10 (v/v) % FBS alone in DMEM (manufactured by Wako Pure Chemical Industries, Ltd.) was prepared. […] A549 cells were also suspended in each of the negative control and comparison control medium compositions, the negative control was dispensed to a 96 well flat bottom attachment surface microplate (manufactured by Corning Incorporated, #3585) and the comparison control was dispensed to a 96 well flat bottom ultra-low attachment surface microplate (manufactured by Corning Incorporated, #3474). […] CellTiter-Glo Luminescent Cell Viability Assay (manufactured by Promega) (100 μL) was added to the low-molecular agar-containing culture medium and each cell culture medium of the negative control and comparison control, the mixture was stood for 10 min at room temperature, and the amount of luminescence was measured by a microplate reader (“FlexStation 3”, manufactured by Molecular Devices) and according to the protocol recommended by Promega. The amount of luminescence of the medium alone was subtracted, whereby the number of viable cells was measured.

[2] = system: adenocarcinomic human alveolar basal epithelial cell line A549; assay: CellTiter-Glo cell survival assay of paclitaxel (Experimental Example 5); assay type: cell-based; settings: for IC50: Homo sapiens, A549, cell survival assay by fluorescence, read-out: paclitaxel 50% inhibitory concentration; for relative cell number (no anticancer agent = 1): 10 days
Description: As a negative control, a medium composition containing 10 (v/v) % FBS alone in DMEM (manufactured by Wako Pure Chemical Industries, Ltd.) was prepared. As a comparison control, in the same manner as in Experimental Example 3, a medium composition containing 10 (v/v) % FBS and 0.015 (w/v) % of deacylated gellan gum in DMEM (manufactured by Wako Pure Chemical Industries, Ltd.) was prepared. Paclitaxel was also added at the above-mentioned concentration to the negative control and comparison control medium compositions, A549 cells were suspended therein and the suspensions were dispensed. Successively, the plate was cultured in a standing state in a CO2 incubator (37° C., 5% CO2) for 10 days.
CellTiter-Glo Luminescent Cell Viability Assay (manufactured by Promega) (100 μL) was added to each cell culture medium of the negative control and comparison control, the mixture was stood for 10 min at room temperature, and the amount of luminescence was measured by a microplate reader (“FlexStation 3”, manufactured by Molecular Devices) and according to the protocol recommended by Promega. The amount of luminescence of the medium alone was subtracted, whereby the number of viable cells was measured. In addition, 50% inhibitory concentration (nM) of paclitaxel by the amount of luminescence was calculated with the number of viable cells when paclitaxel was not added as 0% inhibition rate.

SMILES: CC(=O)O[C@H]1C(=O)[C@@]2(C)[C@H]([C@H](OC(=O)c3ccccc3)[C@]3(O)C[C@H](OC(=O)[C@H](O)[C@@H](NC(=O)c4ccccc4)c4ccccc4)C(C)=C1C3(C)C)[C@]1(OC(C)=O)CO[C@@H]1C[C@@H]2O [paclitaxel, Paclitaxel]
- IC50 ([1]; comparison control (0.015 (w/v)% deacylated gellan gum medium)): 4.5 nM
- IC50 ([1]; low-molecular agar-containing medium): 4.9 nM
- IC50 ([1]; negative control (DMEM, 10% FBS, attachment surface plate)): 4.1 nM
- relative cell number (no anticancer agent = 100) ([1]; agent 0.001 μM, comparison control (0.015 (w/v)% deacylated gellan gum medium)): 99.9
- relative cell number (no anticancer agent = 100) ([1]; agent 0.001 μM, low-molecular agar-containing medium): 102.4
- relative cell number (no anticancer agent = 100) ([1]; agent 0.001 μM, negative control (DMEM, 10% FBS, attachment surface plate)): 100.1
- relative cell number (no anticancer agent = 100) ([1]; agent 0.01 μM, comparison control (0.015 (w/v)% deacylated gellan gum medium)): 23.5
- relative cell number (no anticancer agent = 100) ([1]; agent 0.01 μM, low-molecular agar-containing medium): 27
- relative cell number (no anticancer agent = 100) ([1]; agent 0.01 μM, negative control (DMEM, 10% FBS, attachment surface plate)): 18.8
- relative cell number (no anticancer agent = 100) ([1]; agent 0.1 μM, comparison control (0.015 (w/v)% deacylated gellan gum medium)): 10.8
- relative cell number (no anticancer agent = 100) ([1]; agent 0.1 μM, low-molecular agar-containing medium): 12.1
- relative cell number (no anticancer agent = 100) ([1]; agent 0.1 μM, negative control (DMEM, 10% FBS, attachment surface plate)): 5.5
- IC50 ([2]; comparison control medium (0.015 (w/v)% deacylated gellan gum)): 2.9 nM
- IC50 ([2]; negative control medium (DMEM, 10% FBS alone)): 4.4 nM
- relative cell number (no anticancer agent = 1) ([2]; paclitaxel 0.001 μM, comparison control medium (0.015 (w/v)% deacylated gellan gum)): 0.842
- relative cell number (no anticancer agent = 1) ([2]; paclitaxel 0.001 μM, negative control medium (DMEM, 10% FBS alone)): 1.004
- relative cell number (no anticancer agent = 1) ([2]; paclitaxel 0.01 μM, comparison control medium (0.015 (w/v)% deacylated gellan gum)): 0.156
- relative cell number (no anticancer agent = 1) ([2]; paclitaxel 0.01 μM, negative control medium (DMEM, 10% FBS alone)): 0.249
